# Assay results published in publication PMC10818454, “The Development of an Oral Solution Containing Nirmatrelvir and Ritonavir and Assessment of Its Pharmacokinetics and Stability” (Pharmaceutics, 2024).
# Where two headings read alike, the source gives them in different places.
# Key:
# [1] = Equilibrium solubility in water and buffers (saturated shake-flask, 37 °C, 24 h); type: physicochemical
# Experimental: The solubility of active pharmaceutical ingredients (API) in water and buffers with various pH values (pH 1.2–pH 7.4) was investigated to guide formulation screening. The equilibrium solubility method was performed based on the saturated shake-flask solubility technique. An excess of each API was added into volumetric flasks containing the medium and placed in a thermostatic shaking chamber (HNY-2102C, Tianjin, China) for 24 h of continuous shaking (150 r/min) at 37 °C. The supernatant was filtered through a 0.45 μm PTFE filter membrane, and then an equal amount of methanol was added to prevent API precipitation. The concentrations were quantified using HPLC. Content analysis was performed using an HPLC system (Thermo Fisher Scientific, Waltham, MA, USA) using methanol:water (88:12, v/v) as the mobile phase. The injection volume of the filtered sample was 10 µL. Separation was performed using an Agilent C18 column (4.60 mm × 250 mm, 5 μm) with a mobile-phase flow rate of 1.0 mL/min. The detection wavelength was set at 203 nm.
# [2] = Recrystallization inhibition by surfactants (solvent shift supersaturation); type: physicochemical; settings: 180 min
# Experimental: The solvent shift method was used to create supersaturation. […] The solution was mixed at 50 r/min and 37 °C. A 3 mL sample of the solution was obtained at predetermined time intervals for measurement and supplemented with an equal volume of fresh medium. […] All tests were performed in triplicate.
# Particle size measurements were performed at different time points using a Malvern Nano ZSP instrument (Malvern, UK). All tests were performed at 25 °C.
# [3] = Solubility in aqueous solutions of different surfactants (0.2% m/v); settings: vs no surfactant
# [4] = Solubility in organic solvents; type: physicochemical; settings: organic solvent or mixture
# Experimental: The solubility of NRV in organic solvents, including ethanol, propylene glycol, and ethyl acetate, was tested.
# [5] = design: method as in PMID 36015346; settings: cited from earlier work
# [6] = cited from earlier work
# SARS-CoV-2 Mpro = test system: SARS-CoV-2 Mpro; design: method as in PMID 20937904; settings: cited from earlier work
structure (smiles),measurement,setting,value
"CC(C)(C)[C@H](NC(=O)C(F)(F)F)C(=O)N1C[C@H]2[C@@H]([C@H]1C(=O)N[C@H](C#N)C[C@@H]1CCNC1=O)C2(C)C [NRV, (1R,2S,5S)-N-((1S)-1-Cyano-2-((3S)-2-oxopyrrolidin-3-yl)ethyl)-3-((2S)-3,3-dimethyl-2-(2,2,2-trifluoroacetamido)butanoyl)-6,6-dimethyl-3-azabicyclo [3.1.0] hexane-2-carboxamide]",solubility at 24 h,"[1]; aqueous buffer, thermodynamic from solid, pH 2.0, 37 °C, read-out: Solubility (concentration, mean ± SD)",983.2 ± 5.4 µg/mL
same,solubility at 24 h,"[1]; aqueous buffer, thermodynamic from solid, pH 3.8, 37 °C, read-out: Solubility (concentration, mean ± SD)",974.7 ± 4.8 µg/mL
same,solubility at 24 h,"[1]; aqueous buffer, thermodynamic from solid, pH 4.5, 37 °C, read-out: Solubility (concentration, mean ± SD)",973.5 ± 5.3 µg/mL
same,solubility at 24 h,"[1]; aqueous buffer, thermodynamic from solid, pH 6.8, 37 °C, read-out: Solubility (concentration, mean ± SD)",957.8 ± 7.5 µg/mL
same,solubility at 24 h,"[1]; aqueous buffer, thermodynamic from solid, pH 7.4, 37 °C, read-out: Solubility (concentration, mean ± SD)",998.8 ± 6.2 µg/mL
same,solubility at 24 h,"[1]; buffers pH 1.2–8.0, read-out: Solubility in each buffer",950 to 1000 µg/mL
same,solubility at 24 h,"[1]; thermodynamic from solid, pH 1.2, 37 °C, read-out: Solubility (concentration, mean ± SD)",997.7 ± 6.5 µg/mL
same,solubility at 24 h,"[1]; water, 37 °C, read-out: Solubility in water",953.1 ± 7.6 µg/mL
same,Change of concentration of supersaturated solution vs original concentration,"[2]; aqueous surfactant solutions, 37 °C",no significant alteration
same,Change of solubility in the presence of poloxamer,[3],no significant change
same,Change of solubility in the presence of HCO and Tween,[3]; p < 0.05,increased
same,solubility,"[4]; ethanol, read-out: Solubility in ethanol (crude concentration)",16500 to 33000 µg/mL
same,solubility,"[4]; ethyl acetate, read-out: Solubility in ethyl acetate (crude concentration)",> 57000 µg/mL
same,solubility,"[4]; propylene glycol, read-out: Solubility in propylene glycol (crude concentration)",< 1600 µg/mL
same,Stability under oxidative and photolytic conditions,[5],stable
same,Stability under strongly acidic and alkaline conditions,[5],hydrolytic
same,BCS class,[6],II/IV
same,Logp (Table S1),"[6]; predictive, ref 1–3 (supplement)",0.845
same,BCS classification (Table S1),[6]; ref 1–3 (supplement),BCS II / IV
same,Solubility in words (Table S1),[6]; ref 1–3 (supplement),low solubility in water and buffered aqueous media
"CC(C)c1nc(CN(C)C(=O)N[C@H](C(=O)N[C@@H](Cc2ccccc2)C[C@H](O)[C@H](Cc2ccccc2)NC(=O)OCc2cncs2)C(C)C)cs1 [RTV, 10-Hydroxy-2-methyl-5-(1-methylethyl)-1-[2-(1methylethyl)-4-thiazolyl]-3,6-dioxo-8,11-bis(phenylmethyl)-2,4,7,12-tetraazatridecan-13-oic acid, 5-thiazolylmethyl ester, [5S-(5R*,8R*,10R*,11R*)]]",Concentration of supersaturated solution during the experimental period,"[2]; with HCO and Tween, p < 0.001 vs no surfactant",effectively sustained
same,Activity against SARS-CoV-2 Mpro,SARS-CoV-2 Mpro,inactive
same,BCS classification (Table S1),[6]; ref 1–3 (supplement),BCS II
